Results taken from patent US20240124418A1 (BioTheryX, Inc., priority 2020, published 2024).

System: TNF-α
Test: Cell-based TNF-α inhibition assay (LPS-induced PBMCs, Meso Scale)
Conditions: PBMC, PBMCs pretreated 1 h, LPS 100 ng/mL 18-24 h, percentage of stimulated DMSO control; for inhibition at 0.1 µM: compound concentration 0.1 μM; for inhibition at 1 µM: compound concentration 1 μM
Description: Example B1. Cell-Based TNF-α Inhibition Assay
Frozen primary blood mononuclear cells (PBMCs) were quick thawed, washed once with RPMI 1640 media supplemented with 10% fetal bovine serum, 1% penicillin, and 1% streptomycin, and plated in a 96 well plate at 200,000 cells per well. The cells were pretreated with DMSO only as a control or a compound for 1 h, and then induced with LPS (lipopolysaccharide) (100 ng/mL) for 18-24 h. The supernatant was analyzed for TNF-α using the Meso Scale assay. Compound activity was determined as a percentage of the stimulated DMSO control. The results are summarized in Table 1, where A represents a percent inhibition value ≥60%; B represents a percent inhibition value <60% and ≥40%; C represents a percent inhibition value <40% and ≥20%; and D represents a single percent inhibition value <20%.

| SMILES | inhibition at 0.1 µM [%] | inhibition at 1 µM [%] |
| --- | --- | --- |
| CCOc1cc([C@@H](CS(C)(=O)=O)N2C(=O)c3cccc(CCCCCCCCCCN4CCC(c5cc6c(cc5F)C(=O)N(C5CCC(=O)NC5=O)C6)CC4)c3C2=O)ccc1OC (stereo partly drawn) [Compound A27, 4-(10-{4-[2-(2,6-Dioxopiperidin-3-yl)-6-fluoro-1-oxo-2,3-dihydro-1H-isoindol-5-yl]piperidin-1-yl}decyl)-2-[(1S)-1-(3-ethoxy-4-methoxyphenyl)-2-methanesulfonylethyl]-2,3-dihydro-1H-isoindole-1,3-dione] | ≥ 60 | ≥ 60 |
| CCOc1cc([C@@H](CS(C)(=O)=O)N2C(=O)c3cccc(NC(=O)CCCCNCc4ccc(OCc5scc6c5CN(C5CCC(=O)NC5=O)C6=O)cc4)c3C2=O)ccc1OC (stereo partly drawn) [Compound A39, 5-((4-((5-(2,6-Dioxopiperidin-3-yl)-4-oxo-5,6-dihydro-4H-thieno[3,4-c]pyrrol-1-yl)methoxy)benzyl)amino)-N-(2-((S)-1-(3-ethoxy-4-methoxyphenyl)-2-(methylsulfonyl)ethyl)-1,3-dioxoisoindolin-4-yl)pentanamide] | ≥ 60 |  |
| CCOc1cc([C@@H](CS(C)(=O)=O)N2C(=O)c3cccc(NC(=O)CCCCCCC4CN(Cc5ccc(OCc6scc7c6CN(C6CCC(=O)NC6=O)C7=O)cc5)CCO4)c3C2=O)ccc1OC (stereo partly drawn) [Compound A47] | ≥ 60 | ≥ 60 |
| CCOc1cc([C@@H](CS(C)(=O)=O)N2C(=O)c3cccc(NC(=O)CCCCCCCCn4cc(-c5cc6c(cc5F)C(=O)N(C5CCC(=O)NC5=O)C6)nn4)c3C2=O)ccc1OC (stereo partly drawn) [Compound A23, 9-{4-[2-(2,6-Dioxopiperidin-3-yl)-6-fluoro-1-oxo-2,3-dihydro-1H-isoindol-5-yl]-1H-1,2,3-triazol-1-yl}-N-{2-[(1S)-1-(3-ethoxy-4-methoxyphenyl)-2-methanesulfonylethyl]-1,3-dioxo-2,3-dihydro-1H-isoindol-4-yl}nonanamide] | ≥ 60 | ≥ 60 |
| CCOc1cc([C@@H](CS(C)(=O)=O)N2C(=O)c3cccc(NC(=O)CCCCCN4CCC(N5CCC(c6cc7c(cc6F)C(=O)N(C6CCC(=O)NC6=O)C7)CC5)CC4)c3C2=O)ccc1OC (stereo partly drawn) [Compound A29, 6-{4-[2-(2,6-Dioxopiperidin-3-yl)-6-fluoro-1-oxo-2,3-dihydro-1H-isoindol-5-yl]-[1,4′-bipiperidin]-1′-yl}-N-{2-[(1S)-1-(3-ethoxy-4-methoxyphenyl)-2-methanesulfonylethyl]-1,3-dioxo-2,3-dihydro-1H-isoindol-4-yl}hexanamide] | 40 to 60 | ≥ 60 |
| CCOc1cc([C@@H](CS(C)(=O)=O)N2C(=O)c3cccc(NC(=O)CCCCCCCCCCC(=O)N[C@H](C(=O)N4C[C@H](O)C[C@H]4C(=O)NCc4ccc(-c5scnc5C)cc4)C(C)(C)C)c3C2=O)ccc1OC [Compound A64, N-{2-[(1S)-1-(3-Ethoxy-4-methoxyphenyl)-2-methanesulfonylethyl]-1,3-dioxo-2,3-dihydro-1H-isoindol-4-yl}-N′-[(2S)-1-[(2S,4R)-4-hydroxy-2-({[4-(4-methyl-1,3-thiazol-5-yl)phenyl]methyl}carbamoyl)pyrrolidin-1-yl]-3,3-dimethyl-1-oxobutan-2-yl]dodecanediamide] | ≥ 60 | ≥ 60 |
| CCOc1cc([C@@H](CS(C)(=O)=O)N2C(=O)c3cccc(NC(=O)CCCCCCCCCN[C@H](C(=O)N4C[C@H](O)C[C@H]4C(=O)NCc4ccc(-c5scnc5C)cc4)C(C)(C)C)c3C2=O)ccc1OC [Compound A65, (2S,4R)-1-[(2S)-2-{[9-({2-[(1S)-1-(3-Ethoxy-4-methoxyphenyl)-2-methanesulfonylethyl]-1,3-dioxo-2,3-dihydro-1H-isoindol-4-yl}carbamoyl)nonyl]amino}-3,3-dimethylbutanoyl]-4-hydroxy-N-{[4-(4-methyl-1,3-thiazol-5-yl)phenyl]methyl}pyrrolidine-2-carboxamide] | ≥ 60 | ≥ 60 |
| CCOc1cc([C@@H](CS(C)(=O)=O)N2C(=O)c3cccc(NC(=O)CCCCCN4CCN(CC(=O)Nc5ccc(C6CCC(=O)NC6=O)cc5)CC4)c3C2=O)ccc1OC (stereo partly drawn) [Compound A83, 6-[4-({[4-(2,6-Dioxopiperidin-3-yl)phenyl]carbamoyl}methyl)piperazin-1-yl]-N-{2-[(1S)-1-(3-ethoxy-4-methoxyphenyl)-2-methanesulfonylethyl]-1,3-dioxo-2,3-dihydro-1H-isoindol-4-yl}hexanamide] | ≥ 60 | ≥ 60 |
| CCOc1cc([C@@H](CS(C)(=O)=O)N2C(=O)c3cc(C#CCCCCCN4CCC(c5cc(F)cc6c5CN(C5CCC(=O)NC5=O)C6=O)CC4)cc(NC(C)=O)c3C2=O)ccc1OC (stereo partly drawn) [Compound A2, N-(6-(7-(4-(2-(2,6-Dioxopiperidin-3-yl)-6-fluoro-1-oxoisoindolin-4-yl)-piperidin-1-yl)hept-1-yn-1-yl)-2-((S)-1-(3-ethoxy-4-methoxyphenyl)-2-(methylsulfonyl)ethyl)-1,3-dioxoisoindolin-4-yl)acetamide] | ≥ 60 |  |
| CCOc1cc([C@@H](CS(C)(=O)=O)N2C(=O)c3cccc(CCCCCCCCCCNCc4ccc(OCc5scc6c5CN(C5CCC(=O)NC5=O)C6=O)cc4)c3C2=O)ccc1OC (stereo partly drawn) [Compound A49, 4-(10-{[(4-{[5-(2,6-Dioxopiperidin-3-yl)-4-oxo-4H,5H,6H-thieno[3,4-c]pyrrol-1-yl]methoxy}phenyl)methyl]amino}decyl)-2-[(1S)-1-(3-ethoxy-4-methoxyphenyl)-2-methanesulfonylethyl]-2,3-dihydro-1H-isoindole-1,3-dione] | ≥ 60 | ≥ 60 |
| CCOc1cc([C@@H](CS(C)(=O)=O)N2C(=O)c3cccc(NC(=O)CCCCCCCCCCOc4cc(-c5scnc5C)ccc4CNC(=O)[C@@H]4C[C@@H](O)CN4C(=O)[C@@H](NC(C)=O)C(C)(C)C)c3C2=O)ccc1OC [Compound A75, (2S,4R)-1-[(2S)-2-Acetamido-3,3-dimethylbutanoyl]-N-[(2-{[10-({2-[(1S)-1-(3-ethoxy-4-methoxyphenyl)-2-methanesulfonylethyl]-1,3-dioxo-2,3-dihydro-1H-isoindol-4-yl}-carbamoyl)decyl]oxy}-4-(4-methyl-1,3-thiazol-5-yl)phenyl)methyl]-4-hydroxypyrrolidine-2-carboxamide] | ≥ 60 | ≥ 60 |
| CCOc1cc([C@@H](CS(C)(=O)=O)N2C(=O)c3cccc(NCCCCCCCCCN4CCC(c5cc6c(cc5F)C(=O)N(C5CCC(=O)NC5=O)C6)CC4)c3C2=O)ccc1OC (stereo partly drawn) [Compound A25, 4-[(9-{4-[2-(2,6-Dioxopiperidin-3-yl)-6-fluoro-1-oxo-2,3-dihydro-1H-isoindol-5-yl]piperidin-1-yl}nonyl)amino]-2-[(1S)-1-(3-ethoxy-4-methoxyphenyl)-2-methanesulfonylethyl]-2,3-dihydro-1H-isoindole-1,3-dione] | ≥ 60 | ≥ 60 |
| CCOc1cc([C@@H](CS(C)(=O)=O)N2C(=O)c3cccc(OCCCCCCCCCNCc4ccc(OCc5scc6c5CN(C5CCC(=O)NC5=O)C6=O)cc4)c3C2=O)ccc1OC (stereo partly drawn) [Compound A50, 4-[(9-{[(4-{[5-(2,6-Dioxopiperidin-3-yl)-4-oxo-4H,5H,6H-thieno[3,4-c]pyrrol-1-yl]methoxy}phenyl)methyl]amino}nonyl)oxy]-2-[(1S)-1-(3-ethoxy-4-methoxyphenyl)-2-methane-sulfonylethyl]-2,3-dihydro-1H-isoindole-1,3-dione] | ≥ 60 | ≥ 60 |
| CCOc1cc([C@@H](CS(C)(=O)=O)N2C(=O)c3c(N)ccc(CCCCCCCCCCCCN4CCC(c5cc(F)cc6c5CN(C5CCC(=O)NC5=O)C6=O)CC4)c3C2=O)ccc1OC (stereo partly drawn) [Compound A18, 4-Amino-7-(12-{4-[2-(2,6-Dioxopiperidin-3-yl)-6-fluoro-1-oxo-2,3-dihydro-1H-isoindol-4-yl]piperidin-1-yl}dodecyl)-2-[(1S)-1-(3-ethoxy-4-methoxyphenyl)-2-methanesulfonylethyl]-2,3-dihydro-1H-isoindole-1,3-dione] | ≥ 60 | ≥ 60 |
| CCOc1cc([C@@H](CS(C)(=O)=O)N2C(=O)c3cccc(NCC(=O)N4CCN(CCCCC(=O)N[C@H](C(=O)N5C[C@H](O)C[C@H]5C(=O)NCc5ccc(-c6scnc6C)cc5)C(C)(C)C)CC4)c3C2=O)ccc1OC [Compound A66, (2S,4R)-1-[(2S)-2-(5-{4-[2-({2-[(1S)-1-(3-Ethoxy-4-methoxyphenyl)-2-methanesulfonylethyl]-1,3-dioxo-2,3-dihydro-1H-isoindol-4-yl}amino)acetyl]piperazin-1-yl}pentan-amido)-3,3-dimethylbutanoyl]-4-hydroxy-N-{[4-(4-methyl-1,3-thiazol-5-yl)phenyl]methyl}-pyrrolidine-2-carboxamide] | 40 to 60 | ≥ 60 |
| CCOc1cc([C@@H](CS(C)(=O)=O)N2C(=O)c3cccc(NC(=O)CCCc4cn(CCNCc5ccc(OCc6scc7c6CN(C6CCC(=O)NC6=O)C7=O)cc5)nn4)c3C2=O)ccc1OC (stereo partly drawn) [Compound A48, 4-[1-(2-{[(4-{[5-(2,6-Dioxopiperidin-3-yl)-4-oxo-4H,5H,6H-thieno[3,4-c]pyrrol-1-yl]methoxy}phenyl)methyl]amino}ethyl)-1H-1,2,3-triazol-4-yl]-N-{2-[(1S)-1-(3-ethoxy-4-methoxyphenyl)-2-methanesulfonylethyl]-1,3-dioxo-2,3-dihydro-1H-isoindol-4-yl}butanamide] | 40 to 60 | ≥ 60 |
